Measured values taken from article PMC9886550, “Molecular mechanism of topoisomerase poisoning by the peptide antibiotic albicidin” (Nature Catalysis, 2023).

What was measured:
E. coli gyrase GyrA^I74M = biological target: T1, E. coli gyrase GyrA^I74M (Escherichia coli, UniProt P0AES4+P0AES6, I74M); test: DNA gyrase cleavage assay (CC50, % cleaved DNA); type: biochemical; conditions: for % maximal cleavage: GyrAI74M, average of 3 independent assays; for EC50: GyrA^I74M, mean ± s.d. of triplicate; for % cleaved DNA Average: average of replicates
T1 construct: alternative cryo-EM approach involving full-length E. coli gyrase; 10-His (cleaved yes); Twin-Strep (cleaved yes); made in house
Protocol: (§1) For DNA gyrase supercoiling assays to characterize gyrase mutants, 15 µl reactions were set up containing 250 ng of relaxed DNA, E. coli gyrase supercoiling buffer (35 mM Tris–Cl pH 7.5, 24 mM KCl, 4 mM MgCl2, 2 mM DTT, 1.8 mM spermidine, 1 mM ATP, 6.0% (w/v) glycerol, and 0.1 mg ml^−1 BSA), gyrase subunits and inhibitors. Concentrations of enzyme and inhibitor are stated in the figure legends. Inhibitors were diluted in the following way to reduce the chance of precipitation: stock compound in 100% DMSO was diluted to 5 mM in 100% DMSO. This compound solution was diluted to 1 mM by stepwise addition of 1 µl of 50% DMSO with thorough mixing via pipetting after each addition. All subsequent dilutions up to 100 µM were performed in the same way using H2O. After this point, compounds were stable and could be diluted in the normal way. Reactions were incubated at 37 °C for 30 min before stopping with 15 µl chloroform:isoamyl alcohol (24:1 v/v) and 15 µl of STEB (40% (w/v) sucrose, 100 mM Tris–Cl pH 8, 10 mM EDTA, 0.5 mg ml^−1 bromophenol blue).
Cleavage assays were set up in the same way as supercoiling assays with some modifications. The concentration of enzyme was increased 4-fold relative to the supercoiling assay and reactions were incubated for 1 h before addition of 0.2% SDS and proteinase K (0.2 mg ml^−1) and further incubation at 37 °C for 30 min to trap cleavage complexes. Reactions were stopped in the same way as supercoiling assays.
Results were visualized by agarose gel electrophoresis: 1% agarose Tris-acetate-EDTA (TAE) gels were run without ethidium bromide (supercoiling) or with 10 µg ml^−1 ethidium bromide (cleavage) at 8 V cm^−1.
DNA cleavage gels were analysed using densitometry (ImageJ). Experiments were carried out in triplicate and expressed as mean ± s.d. Curves were fitted using OriginPro 2021 (Origin Lab) according to a modified Hill equation:1 y=cI+(cF−cI)[…]/(k^n+x^n) where y is the percentage of cleaved DNA, cI is the initial cleavage, cF is the final cleavage, k is the CC50 (the concentration of inhibitor that results in cleavage of 50% of DNA), n is a slope factor and x is the inhibitor concentration.

E. coli gyrase GyrA^D72N = biological target: T2, E. coli gyrase GyrA^D72N (Escherichia coli, UniProt P0AES4+P0AES6); type: biochemical; conditions: in words
T2 construct: alternative cryo-EM approach involving full-length E. coli gyrase; 10-His (cleaved yes); Twin-Strep (cleaved yes); made in house
Protocol: as §1
Cleavage assays were set up in the same way as supercoiling assays with some modifications. The concentration of enzyme was increased 4-fold relative to the supercoiling assay and reactions were incubated for 1 h before addition of 0.2% SDS and proteinase K (0.2 mg ml^−1) and further incubation at 37 °C for 30 min to trap cleavage complexes. […]

DNA gyrase = DNA gyrase supercoiling inhibition assay (initial IC50 determination); type: biochemical, E. coli; conditions: vs Albi-3
Protocol: For initial compound IC50 determination, DNA supercoiling experiments with DNA gyrase were performed in a total volume of 30 μl of gyrase buffer (Inspiralis). The reactions contained 500 ng relaxed pBR322 plasmid DNA, 1.5 U DNA gyrase (6 U μl^−1) and albicidin derivatives at a final concentration of between 2.5 and 320 nM. The final DMSO concentration used was 3%. Samples were incubated at 37 °C for 30 min and subsequently loaded on an agarose gel. Electrophoretic analysis was performed using a 1% agarose gel (100 V, 90 min). DNA bands were stained with ethidium bromide and subsequently quantified using ImageJ 1.53k software.
Extended Data Fig. 8 Inhibition of supercoiling by Albi-1/2/3. a. Chemical structures of Albi-1, Albi-2 and Albi-3. b. Example supercoiling inhibition assay gels: Albi-1, decreasing concentrations (320, 160, 80, 40, 20, 10, 5, 2.5 nM); Albi-2 (320, 160, 80, 40, 20 nM); Albi-3 (960, 800, 640, 480, 320, 160, 80, 40 nM). First lane - relaxed pBR322; second lane - DNA gyrase. 40 nM albicidin was used as positive control (third lane). Different concentrations were tested and representative gels are shown.

Compound	% maximal cleavage (E. coli gyrase GyrA^I74M)	EC50 (E. coli gyrase GyrA^I74M)	resistance of the variant judged by the CC50 (E. coli gyrase GyrA^D72N)	better activity in the gyrase inhibition assay than Albi-3 (DNA gyrase)	reduction in the maximal amount of cleavage (E. coli gyrase GyrA^I74M; GyrA^I74M vs WT gyrase)	% cleaved DNA Average (E. coli gyrase GyrA^I74M; albicidin 0.0025 µM)	% cleaved DNA Average (E. coli gyrase GyrA^I74M; albicidin 0.005 µM)	% cleaved DNA Average (E. coli gyrase GyrA^I74M; albicidin 0.01 µM)	% cleaved DNA Average (E. coli gyrase GyrA^I74M; albicidin 0.025 µM)	% cleaved DNA Average (E. coli gyrase GyrA^I74M; albicidin 0.05 µM)	% cleaved DNA Average (E. coli gyrase GyrA^I74M; albicidin 0.1 µM)	% cleaved DNA Average (E. coli gyrase GyrA^I74M; albicidin 0.25 µM)	% cleaved DNA Average (E. coli gyrase GyrA^I74M; albicidin 0.5 µM)	% cleaved DNA Average (E. coli gyrase GyrA^I74M; albicidin 1 µM)
CC(C)Oc1c(NC(=O)c2ccc(NC(=O)[C@H](Cc3c[nH]nn3)NC(=O)c3ccc(NC(=O)c4ccc(C#N)cc4)cn3)cn2)ccc(C(=O)Nc2ccc(C(=O)O)cc2)c1O [Albi-1]	79±5%	30 ± 2.7 nM	did not show increased resistance											
COc1c(NC(=O)c2ccc(NC(=O)c3ccc(NC(=O)[C@H](Cc4c[nH]nn4)NC(=O)c4ccc(NC(=O)c5ccc6cc(O)ccc6c5)cc4)cn3)c(OCCN)c2O)ccc(C(=O)O)c1O [Albi-2]				~ 4 fold										
COc1c(NC(=O)c2ccc(NC(=O)c3ccc(NC(=O)[C@H](CC#N)NC(=O)c4ccc(NC(=O)/C(C)=C/c5ccc(O)cc5)cc4)cc3)c(OC)c2O)ccc(C(=O)O)c1O [Albicidin]	40±10%	42 ± 7.7 nM	did not show increased resistance		~ 2 fold	2.868%	1.835%	6.013%	10.9112%	19.5143%	32.1987%	36.304%	39.8221%	36.4081%
